Experimental data from US5219839A, “Adenosine derivatives, their methods of preparation and pharmaceutical compositions in which they are present” (Laboratories UPSA, priority 1992, dated 1993).

Columns and labels:
A1 receptors = target: T1, A1 receptors (Rattus norvegicus, UniProt P25099); experiment: Binding to adenosine A1 receptors: competitive displacement of [^3 H] PIA, rat brain membranes; details: [^3 H] PIA 2.5 nM, n=3; for inhibition at 10 µM: 10^-5 M, read-out: % displacement of the labeled ligand, A1, 1E-5M; for inhibition at 0.1 µM: read-out: % displacement of the labeled ligand, A1, 1E-7M
T1 construct: the brain is quickly removed and washed in cold isotonic solution; from tissue; host or cells: rat brain hemispheres (membrane homogenate)
T1 sequence (P25099 1-326): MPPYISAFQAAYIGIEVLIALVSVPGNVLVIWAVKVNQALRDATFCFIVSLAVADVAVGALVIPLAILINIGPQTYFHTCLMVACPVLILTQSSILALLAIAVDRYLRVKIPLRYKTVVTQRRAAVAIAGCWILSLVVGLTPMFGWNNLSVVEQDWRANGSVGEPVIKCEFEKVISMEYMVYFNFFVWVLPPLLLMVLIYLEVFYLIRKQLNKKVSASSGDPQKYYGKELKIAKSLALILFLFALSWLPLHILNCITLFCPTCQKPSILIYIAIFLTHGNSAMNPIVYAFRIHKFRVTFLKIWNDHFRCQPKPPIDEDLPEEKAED
Description: (§1) The affinity of the products of the Examples for the rat central A1 and A2 adenosinergic receptors is determined by the competitive technique using a radioactive ligand specifically bound either to the A1 receptors ([^3 H] PIA) or to the A2 receptors ([^3 H] NECA).
After the animal has been sacrificed by decapitation, the brain is quickly removed and washed in cold isotonic solution. The two hemispheres are separated and weighed and each of them is introduced into a polyallomer tube containing 25 volumes of cold homogenization buffer. Homogenization is effected using an Ultra-Turrax for 30 seconds (3 times 10 seconds with 10-second intervals, 70% of the maximum speed). The ground material obtained is centrifuged at 1000 g (≈3000 rpm) for 10 minutes at 4° C.
The supernatant is centrifuged again at 48,000 g (≈20,000 rpm) for 20 minutes at 4° C.
When this step is complete, the residue is taken up with 4 volumes of homogenization buffer, resuspended using a Vortex and homogenized with the Ultra-Turrax. Adenosine deaminase is then added at a rate of 1 U/ml, i.e. 1 μl/ml of homogenate, using a 10 μl Hamilton syringe.
After this treatment, the homogenate is shaken for 30 minutes at room temperature and then centrifuged at […] (≈20,000 rpm) for 30 minutes at 4° C.
The residue obtained is resuspended in 10 volumes of homogenization buffer and passed through the Ultra-Turrax for 20 seconds (2 times 10 seconds with a 10-second interval, 70% of the maximum speed).
The homogenate prepared in this way is used for the competitive tests. It is kept at 4° C. if the studies take place the same day, or stored at -20° C. in the form of 10 ml aliquots.
After the homogenate has been thawed at room temperature, it is passed through a Potter homogenizer (6 manual to-and-fro movements, speed 6), diluted to 2/5 in incubation buffer and placed in a water bath thermostated at 4° C., with shaking, until the end of the experiment.
(§2) 50 μl of [^3 H] PIA at 100 nM, i.e. 2.5 nM in the final reaction medium allowing for the 1/40 dilution, and 50 μl of the product of the Example at the concentrations considered (10^-5 M and 10^-7 M) are introduced into the reaction tubes. The reaction is initiated by the addition of 1 ml of homogenate and 900 μl of incubation buffer. The procedure is identical for all the beta-blockers studied.
(§3) The tubes are shaken and incubated in a water bath at 20° C. for 30 minutes. When the incubation is complete, the contents of the tubes are filtered on Whatman GF/B paper. Each tube is washed twice with 2 ml of rinsing buffer and then the filters themselves are rinsed with 3 ml of this same buffer.
The filters are then transferred to counting flasks and 10 ml of liquid scintillator (Ready Solv HP/b, Beckman) are added.
After they have been shaken, the flasks are stored in a refrigerator overnight and the radioactivity is then determined in a liquid scintillation counter.
(§4) 3 tests are performed for each concentration studied. The non-specific binding of the [^3 H] PIA is assessed by measuring the amount of radioactivity retained on the filter in the presence of 10^-5 M phenylisopropyladenosine (PIA). The value of the non-specific binding is systematically subtracted from that of the tests.
(§5) The results are expressed for each product in the form of the percentage displacement (n=3) of the labeled radioligand at concentrations of 10^-5 M and 10^-7 M.

A2 receptors = target: T2, A2 receptors (Rattus norvegicus, UniProt P30543); experiment: Binding to adenosine A2 receptors: competitive displacement of [^3 H] NECA, rat striatum membranes; details: [^3 H] NECA 4 nM, n=3; for inhibition at 10 µM: 10^-5 M, read-out: % displacement of the labeled ligand, A2, 1E-5M; for inhibition at 0.1 µM: read-out: % displacement of the labeled ligand, A2, 1E-7M
T2 construct: The two hemispheres are separated and the striatum is removed from each of them (Bruns et al., 1986); from tissue; host or cells: rat striatum (membrane homogenate)
T2 sequence (P30543 whole entry): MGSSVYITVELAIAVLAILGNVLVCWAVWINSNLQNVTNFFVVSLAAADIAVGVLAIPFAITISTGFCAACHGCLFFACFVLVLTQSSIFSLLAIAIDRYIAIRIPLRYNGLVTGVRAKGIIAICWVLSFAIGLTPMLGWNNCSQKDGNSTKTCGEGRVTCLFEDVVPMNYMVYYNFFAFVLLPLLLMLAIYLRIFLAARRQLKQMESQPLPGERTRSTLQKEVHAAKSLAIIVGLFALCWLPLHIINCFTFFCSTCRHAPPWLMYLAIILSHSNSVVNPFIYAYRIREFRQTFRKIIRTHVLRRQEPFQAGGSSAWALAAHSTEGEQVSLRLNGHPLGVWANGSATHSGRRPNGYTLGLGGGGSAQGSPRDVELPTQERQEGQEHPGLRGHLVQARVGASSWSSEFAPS
Description: as §1
After decapitation of the animal, the brain is quickly removed and washed in cold isotonic solution. The two hemispheres are separated and the striatum is removed from each of them (Bruns et al., 1986), weighed and introduced into a polyallomer tube containing 10 volumes of cold homogenization buffer. The tissue is homogenized with an Ultra-Turrax for 30 seconds (3 times 10 seconds with 10-second intervals, 70% of the maximum speed). The ground material is centrifuged at 50,000 g (≈20,500 rpm) for 10 minutes at 4° C.
The residue obtained is resuspended in 10 volumes of homogenization buffer using a Vortex and homogenized with the Ultra-Turrax (5 to 10 seconds, 70% of the maximum speed).
Adenosine deaminase is then added at a rate of 1 U/ml, i.e. 1 μl/ml of homogenate, using a 10 μl Hamilton syringe. The homogenate treated in this way is shaken at room temperature for 30 minutes.
When the incubation is complete, the homogenate is centrifuged at 50,000 g (≈20,500 rpm) for 10 minutes at 4° C.
The residue is taken up with 5 volumes of cold homogenization buffer and passed through the Ultra-Turrax (2 times 10 seconds with a 10-second interval, 70% of the maximum speed) and the homogenate prepared in this way is finally frozen at -70° C.
After the homogenate has been thawed at room temperature, 15 volumes of incubation buffer are added. The homogenate is shaken on a Vortex, passed through a Potter homogenizer (6 to-and-fro movements, speed 6), diluted to 1/10 in incubation buffer and finally placed in a water bath thermostated at 4° C., with shaking, until the end of the experiment.
as §2, with “NECA” for “PIA”, “160” for “100”, “4” for “2.5”, “similar” for “identical”, “compounds” for “beta-blockers”
as §3, with “25°” for “20°”, “60” for “30”, “buffer before being transferred to counting flasks.” for “buffer.”
10 ml of liquid scintillator (Ready Solv HP/b, Beckman) are added to all the flasks. These are shaken and stored in a refrigerator overnight. The radioactivity is determined in a liquid scintillation counter.
as §4, with “NECA” for “PIA”, “determined” for “assessed”, “5 μM N-ethylcarboxamidoadenosine (NECA).” for “10^-5 M phenylisopropyladenosine (PIA).”
as §5

[1] = test system: twisting and stretching movements in mice; experiment: Phenylbenzoquinone test (analgesic activity); type: in vivo; details: Mus musculus, po, one hour before phenylbenzoquinone i.p., 5 minutes observation, read-out: Phenylbenzoquinone test 50% inhibitory dose
Description: The intraperitoneal injection of phenylbenzoquinone causes twisting and stretching movements in mice. Analgesics prevent or reduce this syndrome, which can be considered as the exteriorization of diffuse abdominal pain.
A 0.02% solution of phenylbenzoquinone in water is administered in a volume of 1 ml/100 g.
The products of the Examples are administered orally one hour before the injection of phenylbenzoquinone.
The stretching and twisting movements are counted for each mouse over an observation period of 5 minutes.

Row | inhibition at 10 µM (A1 receptors) | inhibition at 0.1 µM (A1 receptors; 10^-7 M) | inhibition at 10 µM (A2 receptors) | inhibition at 0.1 µM (A2 receptors; 10^-7 M) | % displacement of the labeled ligand, A1, 1E-7M (A1 receptors; 10^-7 M, 0.1 µM) | % displacement of the labeled ligand, A2, 1E-7M (A2 receptors; 10^-7 M, 0.1 µM) | SMILES | ED50 [1]
1 | 94% | 15% | 89% | 53% | – | – | O=C(NC1CC1)[C@H]1O[C@@H](n2cnc3c(NCC4CC4(c4ccc(F)cc4)c4ccc(F)cc4)ncnc32)[C@H](O)[C@@H]1O (mixture of isomers) [Example 40, β-D-Ribofuranuronamido-N-cyclopropyl-1-deoxy-1-[6-[(±)-[[2-di(4-fluorophenyl)cyclopropyl]methyl]amino]-9H-purin-9-yl]] | 0.5 mg/kg
2 | 98% | 31% | 100% | 68% | – | – | CCNC(=O)[C@H]1O[C@@H](n2cnc3c(NCC4CC4(c4ccccc4)c4ccccc4)ncnc32)[C@H](O)[C@@H]1O (mixture of isomers) [Example 41, β-D-Ribofuranuronamido-N-ethyl-1-deoxy-1-[6-[(±)-[[2,2-diphenylcyclopropyl]methyl]amino]-9H-purin-9-yl]] | 0.5 mg/kg
3 | 96% | 20% | 94% | 59% | – | – | O=C(NC1CC1)[C@H]1O[C@@H](n2cnc3c(NCC4CC4(c4ccccc4)c4ccccc4)ncnc32)[C@H](O)[C@@H]1O (mixture of isomers) [Example 42, β-D-Ribofuranuronamido-N-cyclopropyl-1-deoxy-1-[6-[(±)-[[2,2-diphenylcyclopropyl]methyl]amino]-9H-purin-9-yl]] | 0.9 mg/kg
4 | 93% | 20% | 79% | 12% | – | – | O=C(NC1CC1)[C@H]1O[C@@H](n2cnc3c(NCC4CC45c4ccccc4CCc4ccccc45)ncnc32)[C@H](O)[C@@H]1O (mixture of isomers) [Example 45, β-D-Ribofuranuronamido-N-cyclopropyl-1-deoxy-1-[6-[(±)-2-[spiro[10',11'-dihydrocyclopropane-1,5'-[5H]-dibenzo[a,d]cycloheptene]methyl]amino]-9H-purin-9-yl]] | 1.6 mg/kg
5 | – | – | 92% | 38% | – | – | O=C(NC1CC1)[C@H]1O[C@@H](n2cnc3c(NCC4CC45c4ccccc4-c4ccccc45)ncnc32)[C@H](O)[C@@H]1O (mixture of isomers) [Example 46, β-D-Ribofuranuronamido-N-cyclopropyl-1-deoxy-1-[6-[(±)-2-[spiro[cyclopropane-1,9'-[9H]-fluorene]methyl]amino]-9H-purin-9-yl]] | 0.6 mg/kg
6 | 93% | 7% | 84% | 17% | – | – | CC(C)NC(=O)[C@H]1O[C@@H](n2cnc3c(NCC4CC4(c4ccccc4)c4ccccc4)ncnc32)[C@H](O)[C@@H]1O (mixture of isomers) [Example 47, β-D-Ribofuranuronamido-N-isopropyl-1-deoxy-1-[6-[(±)-[[2,2-diphenylcyclopropyl]methyl]amino]-9H-purin-9-yl]] | 2 mg/kg
7 | 93% | 18% | 95% | 56% | – | – | OC[C@H]1O[C@@H](n2cnc3c(NCC4CC4(c4ccccc4)c4ccccc4)ncnc32)[C@H](O)[C@@H]1O (mixture of isomers) [Example 51, N^6-(±)-[1,1-Diphenylcyclopropan-2-yl]methyladenosine] | 31 mg/kg
8 | 92% | 18% | 92% | 28% | – | – | OC[C@H]1O[C@@H](n2cnc3c(NCC4CC4(c4ccccc4)c4cc(Cl)cc(Cl)c4)ncnc32)[C@H](O)[C@@H]1O (mixture of isomers) [Example 52, N^6-(±)-[1-(3,5-Dichlorophenyl)-1-phenylcyclopropan-2-yl]methyladenosine] | 41 mg/kg
9 | 97% | – | 96% | – | 44% | 73% | O=C(NC1CC1)[C@H]1O[C@@H](n2cnc3c(NCC4CC4(c4ccccc4)c4ccccc4)ncnc32)[C@H](O)[C@@H]1O (single isomer, unassigned) [Example 43, β-D-Ribofuranuronamido-N-cyclopropyl-1-deoxy-1-[6-[(+)-[[2,2-diphenylcyclopropyl]methyl]amino]-9H-purin-9-yl]] | 1.2 mg/kg
